In the NIST ThermoML archive (doi:10.1016/j.fluid.2017.09.005):

Assay: xn = mol fraction of the nth substance listed
Conditions: Liquid; for mass density: Vibrating tube method

CO [methanol] + O
viscosity [mPa·s], Pressure drop in straight capillary
Conditions | x1 = 0.1 | x1 = 0.2 | x1 = 0.3 | x1 = 0.4 | x1 = 0.6 | x1 = 0.8 | x1 = 1
523.2 K, 20000 kPa | 0.116 | 0.112 | 0.108 | 0.102 | 0.09 | 0.079 | 0.07
523.2 K, 30000 kPa | 0.118 | 0.117 | 0.114 | 0.11 | 0.1 | 0.09 | 0.08
523.2 K, 40000 kPa | 0.121 | 0.121 | 0.119 | 0.115 | 0.107 | 0.098 | 0.089
573.2 K, 20000 kPa | 0.084 | 0.08 | 0.074 | 0.067 | 0.054 | 0.045 | 0.042
573.2 K, 30000 kPa | 0.089 | 0.085 | 0.078 | 0.078 | 0.072 | 0.065 | 0.063
573.2 K, 40000 kPa | 0.094 | 0.091 | 0.087 | 0.084 | 0.075 | 0.069 | 0.065
618.2 K, 20000 kPa | 0.06 | 0.035 | 0.026 | 0.025 | 0.027 | 0.027 | 0.029
618.2 K, 30000 kPa | 0.071 | 0.065 | 0.058 | 0.052 | 0.047 | 0.044 | 0.043
618.2 K, 40000 kPa | 0.078 | 0.073 | 0.069 | 0.065 | 0.059 | 0.055 | 0.053

mass density [kg/m3]
Conditions | x1 = 0.1 | x1 = 0.2 | x1 = 0.3 | x1 = 0.4 | x1 = 0.6 | x1 = 0.8 | x1 = 1
523.2 K, 20000 kPa | 767.8 | 724.7 | 686.4 | 652.8 | 597.1 | 552.1 | 517.5
523.2 K, 30000 kPa | 781.4 | 740.7 | 705.9 | 677 | 628.4 | 591.4 | 563.57
523.2 K, 40000 kPa | 791.9 | 754.4 | 722.3 | 694.7 | 650.9 | 618.2 | 593.3
573.2 K, 20000 kPa | 674.5 | 619.8 | 569.3 | 522.3 | 439.6 | 380.5 | 345.3
573.2 K, 30000 kPa | 696.2 | 650.4 | 610.2 | 575.5 | 520.4 | 482.3 | 457.63
573.2 K, 40000 kPa | 714.3 | 673.1 | 638 | 608 | 562.4 | 530.6 | 511
618.2 K, 20000 kPa | 497.6 | 299.3 | 208.9 | 198.2 | 198.4 | 203.9 | 210.5
618.2 K, 30000 kPa | 586 | 524.1 | 473.1 | 430.4 | 381.7 | 360.2 | 350.4
618.2 K, 40000 kPa | 624.9 | 578.5 | 544.1 | 512 | 470.3 | 446.2 | 427.7

O [water] + CCO
viscosity [mPa·s], Capillary tube (Ostwald / Ubbelohde) method, x2 = 0
Conditions | 523.2 K | 573.2 K | 618.2 K
20000 kPa | 0.11 | 0.09 | 0.072
30000 kPa | 0.113 | 0.093 | 0.077
40000 kPa | 0.115 | 0.096 | 0.081

mass density [kg/m3], x2 = 0
Conditions | 523.2 K | 573.2 K | 618.2 K
20000 kPa | 816.1 | 734.8 | 619.7
30000 kPa | 825.5 | 750.7 | 656.9
40000 kPa | 834.3 | 764.3 | 682.3
